# Measured values reported in ChEMBL document CHEMBL3407403, “Synthetic modification of hydroxychavicol by Mannich reaction and alkyne-azide cycloaddition derivatives depicting cytotoxic potential” (Eur J Med Chem, 2015).
# Active and inactive are the calls of the source. No cut-off for these calls is given here.
# Columns and labels:
# [1] = Cell cycle arrest in human HL60 cells assessed as accumulation at G2 phase at 20 uM after 24 hrs by propidium iodide-staining based flow cytometry (reference value: […]); assay type: functional; conditions: HL-60
# HepG2 [2] = assay: Growth inhibition of human HepG2 cells at 50 uM after 72 hrs by MTT assay; assay type: functional; conditions: HepG2, 72 h, read-out: GI
# [3] = Growth inhibition of human HL60 cells at 30 uM after 72 hrs by MTT assay; assay type: functional; conditions: HL-60, 72 h, read-out: GI
# [4] = Cell cycle arrest in human HL60 cells assessed as accumulation at G2 phase at 10 uM after 24 hrs by propidium iodide-staining based flow cytometry (reference value: 1%); assay type: functional; conditions: HL-60
# HepG2 [5] = assay: Growth inhibition of human HepG2 cells after 72 hrs by MTT assay; assay type: functional, cell-based; conditions: HepG2, 72 h
# [6] = Cell cycle arrest in human HL60 cells assessed as apoptotic cells at 20 uM after 24 hrs by propidium iodide-staining based flow cytometry (reference value: 3%); assay type: functional; conditions: HL-60
# SK-N-SH [7] = assay: Growth inhibition of human SK-N-SH cells after 72 hrs by MTT assay; assay type: functional, cell-based
# [8] = Growth inhibition of human MIAPaCa2 cells at 30 uM after 72 hrs by MTT assay; assay type: functional; conditions: MIA PaCa-2, 72 h, read-out: GI
# [9] = Cell cycle arrest in human HL60 cells assessed as accumulation at G2 phase at 5 uM after 24 hrs by propidium iodide-staining based flow cytometry (reference value: 1%); assay type: functional; conditions: HL-60
# [10] = Growth inhibition of human HL60 cells after 24 hrs by MTT assay; assay type: functional, cell-based; conditions: HL-60, 24 h
# [11] = Cell cycle arrest in human HL60 cells assessed as apoptotic cells at 5 uM after 24 hrs by propidium iodide-staining based flow cytometry (reference value: 3%); assay type: functional; conditions: HL-60
# [12] = Cell cycle arrest in human HL60 cells assessed as accumulation at S phase at 10 uM after 24 hrs by propidium iodide-staining based flow cytometry (reference value: 63%); assay type: functional; conditions: HL-60
# [13] = Growth inhibition of human HL60 cells after 72 hrs by MTT assay; assay type: functional, cell-based; conditions: HL-60, 72 h
# [14] = Cell cycle arrest in human HL60 cells assessed as accumulation at G1 phase at 10 uM after 24 hrs by propidium iodide-staining based flow cytometry (reference value: 36%); assay type: functional; conditions: HL-60
# [15] = Cell cycle arrest in human HL60 cells assessed as accumulation at G2 phase at 15 uM after 24 hrs by propidium iodide-staining based flow cytometry (reference value: […]); assay type: functional; conditions: HL-60
# HL-60 [16] = assay: Reduction in mitochondrial membrane potential in human HL60 cells at 5 uM after 24 hrs by Rh-123-staining based flow cytometry (reference value: 7%); assay type: functional; set-up: scale not given: the % may be the effect or the level left
# HL-60 [17] = assay: Reduction in mitochondrial membrane potential in human HL60 cells at 10 uM after 24 hrs by Rh-123-staining based flow cytometry (reference value: 7%); assay type: functional; set-up: scale not given: the % may be the effect or the level left
# HL-60 [18] = assay: Reduction in mitochondrial membrane potential in human HL60 cells at 20 uM after 24 hrs by Rh-123-staining based flow cytometry (reference value: 7%); assay type: functional; set-up: scale not given: the % may be the effect or the level left
# MCF7 [19] = assay: Growth inhibition of human MCF7 cells after 72 hrs by MTT assay; assay type: functional, cell-based; conditions: MCF7, 72 h
# HL-60 [20] = assay: Induction of apoptosis in human HL60 cells assessed as effect on morphology at 5 to 20 uM after 24 hrs by phase-contrast microscopy; assay type: functional, cell-based
# [21] = Growth inhibition of human MIAPaCa2 cells after 72 hrs by MTT assay; assay type: functional, cell-based; conditions: MIA PaCa-2, 72 h
# HL-60 [22] = assay: Reduction in mitochondrial membrane potential in human HL60 cells at 15 uM after 24 hrs by Rh-123-staining based flow cytometry (reference value: 7%); assay type: functional; set-up: scale not given: the % may be the effect or the level left
# SK-N-SH [23] = assay: Growth inhibition of human SK-N-SH cells at 50 uM after 72 hrs by MTT assay; assay type: functional; conditions: read-out: GI
# [24] = Cell cycle arrest in human HL60 cells assessed as apoptotic cells at 10 uM after 24 hrs by propidium iodide-staining based flow cytometry (reference value: 3%); assay type: functional; conditions: HL-60
# HepG2 [25] = assay: Growth inhibition of human HepG2 cells at 30 uM after 72 hrs by MTT assay; assay type: functional; conditions: HepG2, 72 h, read-out: GI
# MCF7 [26] = assay: Growth inhibition of human MCF7 cells at 30 uM after 72 hrs by MTT assay; assay type: functional; conditions: MCF7, 72 h, read-out: GI
# [27] = Cell cycle arrest in human HL60 cells assessed as accumulation at S phase at 5 uM after 24 hrs by propidium iodide-staining based flow cytometry (reference value: 63%); assay type: functional; conditions: HL-60
# [28] = Growth inhibition of human MIAPaCa2 cells at 50 uM after 72 hrs by MTT assay; assay type: functional; conditions: MIA PaCa-2, 72 h, read-out: GI
# [29] = Cell cycle arrest in human HL60 cells assessed as accumulation at G1 phase at 5 uM after 24 hrs by propidium iodide-staining based flow cytometry (reference value: 36%); assay type: functional; conditions: HL-60
# [30] = Cell cycle arrest in human HL60 cells assessed as apoptotic cells at 15 uM after 24 hrs by propidium iodide-staining based flow cytometry (reference value: 3%); assay type: functional; conditions: HL-60
# [31] = Cell cycle arrest in human HL60 cells assessed as accumulation at G1 phase at 15 uM after 24 hrs by propidium iodide-staining based flow cytometry (reference value: 36%); assay type: functional; conditions: HL-60
# HL-60 [32] = assay: Induction of apoptosis in human HL60 cells assessed as apoptotic bodies formation after 24 hrs by Hoechst 33342-staining based fluorescence microscopy; assay type: functional, cell-based
# SK-N-SH [33] = assay: Growth inhibition of human SK-N-SH cells at 30 uM after 72 hrs by MTT assay; assay type: functional; conditions: read-out: GI
# MCF7 [34] = assay: Growth inhibition of human MCF7 cells at 50 uM after 72 hrs by MTT assay; assay type: functional; conditions: MCF7, 72 h, read-out: GI
# [35] = Cell cycle arrest in human HL60 cells assessed as accumulation at S phase at 15 uM after 24 hrs by propidium iodide-staining based flow cytometry (reference value: 63%); assay type: functional; conditions: HL-60
# [36] = Growth inhibition of human HL60 cells at 50 uM after 72 hrs by MTT assay; assay type: functional; conditions: HL-60, 72 h, read-out: GI
# [37] = Cell cycle arrest in human HL60 cells assessed as accumulation at S phase at 20 uM after 24 hrs by propidium iodide-staining based flow cytometry (reference value: […]); assay type: functional; conditions: HL-60
# [38] = Cell cycle arrest in human HL60 cells assessed as accumulation at G1 phase at 20 uM after 24 hrs by propidium iodide-staining based flow cytometry (reference value: 36%); assay type: functional; conditions: HL-60
# HL-60 [39] = assay: Induction of apoptosis in human HL60 cells assessed as apoptotic bodies formation at 5 to 20 uM after 24 hrs by Hoechst 33342-staining based fluorescence microscopy; assay type: functional, cell-based
SMILES,Activity [1] [%],inhibition of growth at 50 µM (HepG2 [2]) [%],inhibition of growth at 30 µM [3] [%],Activity [4] [%],IC50 (HepG2 [5]) [µM],Activity [6] [%],IC50 (SK-N-SH [7]) [µM],inhibition of growth at 30 µM [8] [%],Activity [9] [%],IC50 [10] [µM],Activity [11] [%],Activity [12] [%],IC50 [13] [µM],Activity [14] [%],Activity [15] [%],Activity (HL-60 [16]) [%],Activity (HL-60 [17]) [%],Activity (HL-60 [18]) [%],IC50 (MCF7 [19]) [µM],Activity (HL-60 [20]),further results
C=CCc1cc(O)c(O)c(CN2CCNCC2)c1,4,73,92.5,4,20,88,14,82.8,2,12,8,37,2,59,11,38,44,46,12,Active,IC50 [21]: 4 µM; Activity (HL-60 [22]): 45%; inhibition of growth at 50 µM (SK-N-SH [23]): 69.9%; Activity [24]: 11%; inhibition of growth at 30 µM (HepG2 [25]): 64.2%; inhibition of growth at 30 µM (MCF7 [26]): 69.2%; Activity [27]: 57%; inhibition of growth at 50 µM [28]: 85.6%; Activity [29]: 41%; Activity [30]: 27%; Activity [31]: 50%; Activity (HL-60 [32]): Dose-dependent effect; inhibition of growth at 30 µM (SK-N-SH [33]): 65.3%; inhibition of growth at 50 µM (MCF7 [34]): 74.2%; Activity [35]: 39%; inhibition of growth at 50 µM [36]: 94.4%; Activity [37]: 44%; Activity [38]: 52%
C=CCc1ccc(O)c(O)c1 [HYDROXYCHAVICOL],6,29.3,88.8,9,> 30,10,> 30,41.7,8,50,5,54,3,37,22,17,22,42,> 30,Active,IC50 [21]: > 30 µM; Activity (HL-60 [22]): 26%; inhibition of growth at 50 µM (SK-N-SH [23]): 71.7%; Activity [24]: 9%; inhibition of growth at 30 µM (HepG2 [25]): 27.2%; inhibition of growth at 30 µM (MCF7 [26]): 36.9%; Activity [27]: 57%; inhibition of growth at 50 µM [28]: 42.8%; Activity [29]: 35%; Activity [30]: 10%; Activity [31]: 17%; inhibition of growth at 30 µM (SK-N-SH [33]): 34.2%; inhibition of growth at 50 µM (MCF7 [34]): 44.1%; Activity [35]: 61%; inhibition of growth at 50 µM [36]: 92.4%; Activity [37]: 67%; Activity (HL-60 [39]): Active; Activity [38]: 27%
C=CCc1cc(O)c(O)c(CN2CCN(c3ccccc3O)CC2)c1,5,82.8,90.3,7,16,89,11,88.7,1,10,7,52,1,41,1,38,44,71,9,Active,IC50 [21]: 3 µM; Activity (HL-60 [22]): 59%; inhibition of growth at 50 µM (SK-N-SH [23]): 79.5%; Activity [24]: 12%; inhibition of growth at 30 µM (HepG2 [25]): 72.8%; inhibition of growth at 30 µM (MCF7 [26]): 77.7%; Activity [27]: 52%; inhibition of growth at 50 µM [28]: 89.9%; Activity [29]: 47%; Activity [30]: 52%; Activity [31]: 21%; Activity (HL-60 [32]): Dose-dependent effect; inhibition of growth at 30 µM (SK-N-SH [33]): 69.2%; inhibition of growth at 50 µM (MCF7 [34]): 79.7%; Activity [35]: 78%; inhibition of growth at 50 µM [36]: 93.5%; Activity [37]: 44%; Activity [38]: 51%
